Biological target: T1, CD11b and CD14 (Homo sapiens, UniProt P08571)
T1 construct: endogenous in cells; host or cells: human monocytes in heparinised whole blood (healthy donors and patients)
T1 sequence (P08571 20-345 limits assumed): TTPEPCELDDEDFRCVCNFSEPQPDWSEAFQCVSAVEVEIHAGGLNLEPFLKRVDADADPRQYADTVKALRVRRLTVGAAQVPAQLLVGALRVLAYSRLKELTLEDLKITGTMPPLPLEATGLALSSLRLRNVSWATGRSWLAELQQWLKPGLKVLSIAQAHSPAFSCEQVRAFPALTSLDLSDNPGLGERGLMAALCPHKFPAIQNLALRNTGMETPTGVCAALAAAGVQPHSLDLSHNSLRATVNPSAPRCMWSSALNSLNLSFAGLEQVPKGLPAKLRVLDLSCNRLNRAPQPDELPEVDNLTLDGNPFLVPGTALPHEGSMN
Experiment: FRET flow cytometry: co-assembly of CD11b and CD14 on monocytes
Format: cell-based
Conditions: human monocytes in whole blood, stimulation with the substance alone, 37° C. 15 minutes
Method: Aliquots […] of whole blood were incubated with the following stimulatory compounds at 37° C. for 15 minutes: LPS of Salmonella minnesota (0.1-10 nM, Mw 10 kDa), ceramide (primarily stearic acid and nervonic acid) and sulfogalactosyl ceramide (SG-cer, […]), both of which tested LPS free in the LAL assay (Cer, 1 nM-5.5 mM), lysophosphatidyl choline (lyso-PC, 10 mM), phorbol-12-myristate-13-acetate (PMA, 1 mM), N-formyl-L-methionyl-L-leucyl-L-phenyl alamine (fMLP, 1 mM), PE, PC, PI and PS liposomes (10 mm) which had been prepared as described above. All reagents were obtained from Sigma. In addition, the cells were stimulated with HPS70 (7 nM), dHSP70 (7 nM) and SG-cer+dHSP70 (40 nM+7 nM). After incubation, the cells were washed with cold PBS containing 0.1% of NaN3. The synthetic LPS antagonist lipid IVa (“compound-406”, 1-400 ng/ml) and lipid A derived from E. coli (1-100 ng/ml) were made available by courtesy of Dr. S. Kusumoto. The cells were pre-incubated with the LPS antagonist at 37° C. for 15 minutes and then stimulated with LPS at the same temperature (without washing).
Whole blood cells which had been stimulated or washed ex vivo […] were incubated on ice for 15 minutes with saturation concentrations of monoclonal fluorochrom-conjugated or biotinylated antibodies. The monoclonal antibodies CD11a (clone 25.3.1), CD16a (clone 3G8). CD18 (clone 7E4), CD14 (clone RMO52), CD33 (clone My9-RD1). CD81 (clone Js64) were obtained as R-phyco-erythrine (R-PE) conjugates and CD25 (clone B1.49.9) in biotinylated form from Coulter/Immunotech (Krefeld, Germany). CD11b (clone d12), CD11c (clone S-HCL-3), CD36 (clone CB38), CD47 (clone B6H12), CD81 (clone JS-81) and (Cd55 (clone IA10) in biotinylated form and Streptavidin-R-PE were purchased from Becton/Dickinson/Pharningen (Heidelberg, Germany) CD18 (clone IB4) in biontinylated form and CD40 (clone EA-5) as R-PE conjugate were obtained from Alexis (Grünberg, Germany) and CD14 (clones ×8 and Uchml) and CD3 (clone Cris-7) in biotinylated form and Streptavidin-Cy5 (Sa-Cy5) from Dianova (Hamburg, Germany), CD32 (clone C1KM5) and CD64 (clone 10.1) were obtained as R-PE conjugates from Caltag (Burlingame, U.S.A.) and CD91 (clone 8G1) in biotinylated form from Proen (Heidelberg, Germany). A monoclonal anti-TLRA antibody (clone HTA125) was kindly provided by Dr. Kensuke. Since no energy transfer between the antibodies directed against the CD14/CD11a and CD14/CD11c pairs was detectable either on resting or on stimulated cells, these antibody combinations were not characterised further.
Lysis of erythrocytes and washing were carried out as described (Rothe et al., Thromb. Vasc. Biol. 16 (1996), 1437-1447). After the last washing step, the samples were divided and part of each sample incubated with a saturating amount of SA-Cy5 on ice for 15 minutes and washed before measuring.
For energy transfer experiments, […] aliquots of whole blood were treated with cholesterol/methyl cyclodextrine (C/C) (100 mg/ml/4.6 mg/ml) or 2-hydroxypropyl-β-cyclodextrine (0.15 mg/ml) at 37° C. for 30 minutes and then stimulated further with LPS (4 nM) or ceramide (40 nM) as described above. The energy transfer between CD14 and CD11b was measured.
A “FACSCalibur” flow cytometer (Becton Dickinson) equipped with an air-cooled 15 mW argon laser (excitation wavelength 488 nm), a diode laser (excitation wavelength […]) and standard filters [channel 1 (FITC): 530/30 nm band pass filter; channel 2 (R-PE being used as donor dye); 585/47 nm band pass filter; channel 3 (PerCP): pass having a length of >670 nm; and channel 4 (Cy5being used as recipient dye): 661/16 nm bad pass filter] was used. The Cellquest software (Becton Dickinson) was used for the measurements. […] Measurement was conducted without compensation. 50,000 leukocytes were required in the “list” modus, forward scattering (FSC) being used as a trigger signal. […]

Substance | co-assembly of CD11b and CD14 (energy transfer between monoclonal antibodies)
lipid A | induced the co-assembly of CD11b and CD14
lyso-phosphatidyl choline [lysoPC] | Only lipoteichoic acid, PE and PI induced co-assembly
phosphatidyl choline [PC] | Only lipoteichoic acid, PE and PI induced co-assembly
phosphatidyl ethanol amine [PE] | induced co-assembly between CD11b and CD14
phosphatidyl inositol [PI] | induced co-assembly between CD11b and CD14
phosphatidyl serine [PS] | Only lipoteichoic acid, PE and PI induced co-assembly
sulfogalactosyl ceramide [SG-cer] | Only lipoteichoic acid, PE and PI induced co-assembly
